Here are results for 20 molecules from patent US20240360081A1, “SULFONAMIDE OREXIN RECEPTOR AGONISTS AND USES THEREOF” (Jazz Pharmaceuticals Ireland Limited, priority 2021, published 2024).

The target of this assay is T1, human recombinant OX2 (hOX2) receptor expressed in CHO cells (Homo sapiens, UniProt O43614).
T1 construct: host or cells: CHO cells (hOX2-CHO)
T1 sequence (O43614 1-444): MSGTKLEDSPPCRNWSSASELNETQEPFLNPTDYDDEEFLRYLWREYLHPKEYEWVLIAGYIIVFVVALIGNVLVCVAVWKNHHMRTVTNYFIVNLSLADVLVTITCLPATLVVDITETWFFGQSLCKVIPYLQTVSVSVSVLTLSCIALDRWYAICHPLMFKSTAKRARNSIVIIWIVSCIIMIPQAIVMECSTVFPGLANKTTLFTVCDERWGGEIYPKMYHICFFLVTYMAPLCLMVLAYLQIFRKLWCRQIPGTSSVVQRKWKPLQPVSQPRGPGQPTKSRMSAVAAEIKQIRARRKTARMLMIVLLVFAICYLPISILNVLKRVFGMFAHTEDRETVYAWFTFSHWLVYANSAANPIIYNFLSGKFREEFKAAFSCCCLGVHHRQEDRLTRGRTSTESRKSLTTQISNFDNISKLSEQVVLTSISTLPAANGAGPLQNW
The assay can be described thus: IP-1 accumulation assay (IP-One HTRF) in hOX2-CHO cells. The class given is cell-based. Particulars: 60 min at 37° C., 11 points CRC, response as % of maximal OX-A response. How it is done: The accumulation of Inositol-1 Monophosphate (IP-1) was measured using IP-One HTRF® Terbium cryptate based assay (Cisbio) in human recombinant OX1 (hOX1) and at OX2 (hOX2) receptors expressed in CHO cells (DiscoverX) according to the manufacturer's instructions for cells tested in suspension.
hOX1-CHO and hOX2-CHO cells were seeded into white 384-well plates at a density of 20,000 cells/well in Hank's Balanced Salt Solution (HBSS) containing 20 mM HEPES pH 7.4, 50 mM, LiCl and 0.1% and Bovine Serum Albumin (BSA).
Compounds of the present disclosure were tested in a 11 points concentration response curve (CRC) serially diluted in neat DMSO at 200 fold concentrations and added by Echo acoustic liquid handling (Labcyte) to the cells (0.5% DMSO final in the assay). After 60 min of incubation at 37° C. detection reagents, IP1-d2 tracer and anti-IP1-cryptate were diluted in lysis buffer according to the manufacturer's descriptions and added to the cells.
Following 60 min incubation at room temperature, time-resolved fluorescence (HTRF) was measured at 615 nm and 665 nm by Envision Multilabel reader (Perkin Elmer) and the HTRF ratio (A665/A615x104) was calculated.
The IP-1 accumulation response was expressed as percentage of the maximal OX-A response.
Curve fitting and EC50 estimations were carried out using a four-parameter logistic model using XLfit Software. Mean data of EC50 are calculated from at least two independent experiments performed in duplicates.
In the Tables, below Category A corresponds to compounds displaying an […]<100 nM, Category B between 100 nM and 1,000 nM, Category C between 1,000 nM and 10,000 nM and Category D above 10,000 nM.
Background: TR-FRET usually uses a lanthanide donor and a delayed reading to cut background.
Broadly, the EC50 is the concentration giving half of the maximal effect. As for `Cc1cc(C(CNS(=O)(=O)N(C)C)CO[C@H]2CC[C@@H](c3cccc(F)c3)CC2)c(=O)n(C(F)F)c1` (single isomer, unassigned; isomer 1) [Example 5ab, (R or S) 1-(difluoromethyl)-3-[1-[(dimethylsulfamoyl)amino]-3-{[(CIS)-4-(3-fluorophenyl)cyclohexyl]oxy}propan-2-yl]-5-methyl-1,2-dihydropyridin-2-one—Isomer 1], the EC50 is below 100 nM. The same measure for `Cc1cc(C(CNS(C)(=O)=O)CO[C@H]2CC[C@@H](c3cccc(F)c3)CC2)c(=O)n(C)c1` (single isomer, unassigned; isomer 1) [Example 5c, (R or S) N-[2-(1,5-dimethyl-2-oxo-1,2-dihydropyridin-3-yl)-3-{[(CIS)-4-(3-fluorophenyl)cyclohexyl]oxy}propyl]methanesulfonamide—Isomer 1]: below 100 nM; for `Cc1cc(C)[n+]([O-])c(C(CNS(C)(=O)=O)CO[C@H]2CC[C@@H](c3ccccc3)CC2)c1` (single isomer, unassigned; isomer 1) [Example 5k, (R or S) 2-[1-methanesulfonamido-3-{[(CIS)-4-phenylcyclohexyl]oxy}propan-2-yl]-4,6-dimethylpyridin-1-ium-1-olate—Isomer 1]: below 100 nM; for `Cc1cc(C(CNS(=O)(=O)CF)CO[C@H]2CC[C@@H](c3cccc(F)c3)CC2)c(=O)n(C)c1` (single isomer, unassigned; isomer 1) [Example 5n, (R or S) N-[2-(1,5-dimethyl-2-oxo-1,2-dihydropyridin-3-yl)-3-{[(CIS)-4-(3-fluorophenyl)cyclohexyl]oxy}propyl]-1-fluoromethanesulfonamide—Isomer 1]: below 100 nM. Consider `Cc1cc(C(CNS(=O)(=O)N(C)C)CO[C@H]2CC[C@@H](c3cccc(F)c3)CC2)c(=O)n(C)c1` (single isomer, unassigned; isomer 1) [Example 5r, (R or S) 3-[1-[(dimethylsulfamoyl)amino]-3-{[(CIS)-4-(3-fluorophenyl)cyclohexyl]oxy}propan-2-yl]-1,5-dimethyl-1,2-dihydropyridin-2-one—Isomer 1], for which the 50% effective concentration (EC50) was below 100 nM. The result for `Cc1cc(C(CNS(C)(=O)=O)CO[C@H]2CC[C@@H](c3cccc(F)c3)CC2)c(=O)n(C(F)F)c1` (single isomer, unassigned; isomer 1) [Example 5y, (R or S) N-[2-[1-(difluoromethyl)-5-methyl-2-oxo-1,2-dihydropyridin-3-yl]-3-{[(CIS)-4-(3-fluorophenyl)cyclohexyl]oxy}propyl]methanesulfonamide—Isomer 1] reads below 100 nM; that for `CS(=O)(=O)NCC(CO[C@H]1CC[C@@H](c2ccccc2)CC1)n1ccccc1=O` (single isomer, unassigned; isomer 2) [Example 1b, (S or R) N-[2-(2-oxo-1,2-dihydropyridin-1-yl)-3-{[(CIS)-4-phenylcyclo-hexyl]oxy}propyl] methane-sulfonamide- Isomer 2], above 10000 nM; that for `Cc1cccn(C(CNS(C)(=O)=O)CO[C@H]2CC[C@@H](c3ccccc3)CC2)c1=O` (single isomer, unassigned; isomer 2) [Example 1e, (S or R) N-[(2R)-2-(3-methyl-2-oxo-1,2-dihydropyridin-1-yl)-3-{[(CIS)-4-phenylcyclo-hexyl]oxy}propyl] methane-sulfonamide- Isomer 2], 100 to 1000 nM. The same measure for `Cc1ccn(C(CNS(C)(=O)=O)CO[C@H]2CC[C@@H](c3ccccc3)CC2)n1` (single isomer, unassigned; isomer 2) [Example 2ac, (S or R) N-[2-(3-methyl-1H-pyrazol-1-yl)-3-{[(CIS)-4-phenylcyclohexyl]oxy}propyl]methanesulfonamide-Isomer 2]: above 10000 nM; for `Cc1ccnn1C(CNS(C)(=O)=O)CO[C@H]1CC[C@@H](c2ccccc2)CC1` (single isomer, unassigned; isomer 2) [Example 2ae, (S or R) N-[2-(5-methyl-1H-pyrazol-1-yl)-3-{[(CIS)-4-phenylcyclohexyl]oxy}propyl]methanesulfonamide-Isomer 2]: above 10000 nM; for `Cc1cc(C)c(=O)n(C(CNS(C)(=O)=O)CO[C@H]2CC[C@@H](c3cccc(F)c3)CC2)c1` (single isomer, unassigned; isomer 2) [Example 2ag, (S or R) N-[2-(3,5-dimethyl-2-oxo-1,2-dihydropyridin-1-yl)-3-{[(CIS)-4-(3-fluorophenyl)cyclohexyl]oxy}propyl]methanesulfonamide-Isomer 2]: 1000 to 10000 nM. The same measure for `Cc1cc(Cl)cn(C(CNS(C)(=O)=O)CO[C@H]2CC[C@@H](c3cccc(F)c3)CC2)c1=O` (single isomer, unassigned; isomer 2) [Example 2ai, (S or R) N-[2-(5-chloro-3-methyl-2-oxo-1,2-dihydropyridin-1-yl)-3-{[(CIS)-4-(3-fluorophenyl)cyclohexyl]oxy}propyl]methanesulfonamide-Isomer 2]: 1000 to 10000 nM; for `Cc1cc(C)c(=O)n(C(CNS(=O)(=O)C2CC2)CO[C@H]2CC[C@@H](c3cccc(F)c3)CC2)c1` (single isomer, unassigned; isomer 2) [Example 2an, (S or R) N-[2-(3,5-dimethyl-2-oxo-1,2-dihydropyridin-1-yl)-3-{[(CIS)-4-(3-fluorophenyl)cyclohexyl]oxy}propyl]cyclopropanesulfonamide-Isomer 2]: 1000 to 10000 nM. Take `Cc1cc(C)c(=O)n(C(CNS(=O)(=O)N(C)C)CO[C@H]2CC[C@@H](c3cccc(F)c3)CC2)c1` (single isomer, unassigned; isomer 2) [Example 2as, (S or R) 1-[1-[(dimethylsulfamoyl)amino]-3-{[(CIS)-4-(3-fluorophenyl)cyclohexyl]oxy}propan-2-yl]-3,5-dimethyl-1,2-dihydropyridin-2-one-Isomer 2]: the EC50 was 100 to 1000 nM. The result for `Cc1cc(C)c(=O)n(C(CNS(=O)(=O)CF)CO[C@H]2CC[C@@H](c3cccc(F)c3)CC2)c1` (single isomer, unassigned; isomer 2) [Example 2av, (S or R) N-[2-(3,5-dimethyl-2-oxo-1,2-dihydropyridin-1-yl)-3-{[(CIS)-4-(3-fluorophenyl)cyclohexyl]oxy}propyl]-1-fluoromethanesulfonamide-Isomer 2] reads 100 to 1000 nM; that for `CCc1cccn(C(CNS(C)(=O)=O)CO[C@H]2CC[C@@H](c3ccccc3)CC2)c1=O` (single isomer, unassigned; isomer 2) [Example 2b, (S or R) N-[2-(3-ethyl-2-oxo-1,2-dihydropyridin-1-yl)-3-{[(CIS)-4-phenylcyclohexyl]oxy}propyl]methanesulfonamide-Isomer 2], 100 to 1000 nM; that for `Cc1cc(C)c(=O)n(C(CNS(C)(=O)=O)COC2CCN(c3ncc(F)cn3)CC2)c1` (single isomer, unassigned; isomer 2) [Example 2ba, (S or R) N-[2-(3,5-dimethyl-2-oxo-1,2-dihydropyridin-1-yl)-3-{[1-(5-fluoropyrimidin-2-yl)piperidin-4-yl]oxy}propyl]methanesulfonamide-Isomer 2], above 10000 nM. On to `CS(=O)(=O)NCC(CO[C@H]1CC[C@@H](c2ccccc2)CC1)n1cccc(F)c1=O` (single isomer, unassigned; isomer 2) [Example 2h, (S or R) N-[2-(3-fluoro-2-oxo-1,2-dihydropyridin-1-yl)-3-{[(CIS)-4-phenylcyclohexyl]oxy}propyl]methanesulfonamide-Isomer 2], for which the concentration giving a half-maximal response (EC50) is above 10000 nM. The result for `Cc1ccc(=O)n(C(CNS(C)(=O)=O)CO[C@H]2CC[C@@H](c3ccccc3)CC2)c1` (single isomer, unassigned; isomer 2) [Example 2k, (S or R) N-[2-(5-methyl-2-oxo-1,2-dihydropyridin-1-yl)-3-{[(CIS)-4-phenylcyclohexyl]oxy}propyl]methanesulfonamide-Isomer 2] reads above 10000 nM. In the case of `Cc1ccn(C(CNS(C)(=O)=O)CO[C@H]2CC[C@@H](c3ccccc3)CC2)c(=O)c1C` (single isomer, unassigned; isomer 2) [Example 2o, (S or R) N-[2-(3,4-dimethyl-2-oxo-1,2-dihydropyridin-1-yl)-3-{[(CIS)-4-phenylcyclohexyl]oxy}propyl]methanesulfonamide-Isomer 2], the concentration for a half-maximal effect (EC50) was above 10000 nM.
